Columns and labels:
[1] = SPANC reaction kinetics with BCN—OH by UV/Vis absorption spectroscopy; format: physicochemical; conditions: for Second-order rate constants (k2): reaction with BCN—OH in MeOH at 298 K
Method: The reactivity of the iridium(III) and ruthenium(II) pyridyl complexes toward a strained alkyne derivative BCN—OH in MeOH at 298 K was studied. The second-order rate constants (k2) of the strain-promoted alkyne-nitrone cycloaddition (SPANC) reaction of complexes 1a-5b are shown in Tables 3 and 4, respectively. The k2 values of the iridium(III) complexes 1a, 2a and 3a and the ruthenium(II) complexes 1b, 2b, 3b, 4b, and 5b were determined to be 0.116-0.238 and 0.078-3.06 M^−1 s^−1, respectively, which are about 1.95-76.5 times that of the free ligand bpy-nitrone-Me (k2=0.040 M^−1 s^−1). This is attributed to the electron-withdrawing effects of the positively-charged metal centers. […] The accelerated reaction kinetics is assumed to originate from the presence of the more electron-withdrawing phenyl ring at the N-position of the nitrone moiety. Thus, the accelerated reaction kinetics render complexes 1a-5b highly advantageous bioorthogonal probes for biomolecules modified with a strained alkyne moiety.
More specifically, the SPANC reaction kinetics of complexes 1a 5b was studied by UV/Ms absorption spectroscopy. For the ligand bpy-nitrone-Me and the iridium(III) complexes 1a-3a, the k2 values were measured under pseudo first order conditions with a 25- to 100-fold excess of BCN—OH in MeOH at 298 K. The reaction process was followed by monitoring the exponential decay of the absorbance at 306-342 nm upon addition of BCN—OH. The final concentrations of the nitrone compounds were 10 μM and those of BCN—OH ranged from 0.25 to 1.0 mM. For the ruthenium(II) complexes 1b-5b, the k2 values were determined under pseudo first order conditions with a 50- to 200-fold excess of BCN—OH in MeOH at 298 K. The reaction process was monitored by following the exponential decay of the absorbance at 329 nm. The final concentrations of the complexes were 10 μM and those of BCN—OH ranged from 0.5 to 2.0 mM. The data were fitted to a single-exponential equation to give the observed rate constants (kobs), which were plotted against the concentrations of BCN—OH to obtain the k2 from the slope of the plots.

unmodified BSA = biological target: T1, unmodified BSA (Bos taurus, UniProt P02769); assay: Emission enhancement with unmodified BSA (negative control); format: biochemical, Bovine; conditions: complex 10 μM, protein 3.78 μM, aerated potassium phosphate buffer (50 mM, pH 7.4)/DMSO (99:1, v/v), 298 K
T1 construct: purchased Calbiochem
T1 sequence (P02769 25-607): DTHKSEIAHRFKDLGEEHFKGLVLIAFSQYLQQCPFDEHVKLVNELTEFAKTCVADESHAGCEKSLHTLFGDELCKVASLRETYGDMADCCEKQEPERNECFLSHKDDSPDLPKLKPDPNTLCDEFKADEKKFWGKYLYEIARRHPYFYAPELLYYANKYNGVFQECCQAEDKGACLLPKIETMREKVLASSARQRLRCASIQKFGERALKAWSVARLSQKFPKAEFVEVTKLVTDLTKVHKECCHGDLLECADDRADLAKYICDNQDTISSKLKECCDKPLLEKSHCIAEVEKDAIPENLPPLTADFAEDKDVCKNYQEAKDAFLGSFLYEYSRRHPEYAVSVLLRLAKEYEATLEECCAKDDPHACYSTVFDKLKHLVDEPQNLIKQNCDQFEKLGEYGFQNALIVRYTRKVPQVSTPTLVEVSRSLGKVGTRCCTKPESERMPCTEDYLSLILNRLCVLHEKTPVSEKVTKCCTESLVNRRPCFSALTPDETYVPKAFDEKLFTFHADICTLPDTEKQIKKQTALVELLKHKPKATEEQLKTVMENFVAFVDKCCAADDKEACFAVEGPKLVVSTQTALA

HeLa cells = format: cell-based; conditions: complex 40 μM; for Cell viability with BCN-C10 pretreatment: BCN-C10 pretreatment (200 μM, 1 h); for Percentage of survival: 37° C., 6 h
Description: The results particularly highlight the potential of the luminogenic transition metal-based polypyridyl complexes of the present invention for bioorthogonal labeling. […] Importantly, although the cellular uptake of complex 2b was substantially higher, it was much less cytotoxic than complex 4b toward the pretreated cells. […] The results also highlight the potential therapeutic use of intracellular bioorthogonal coupling reactions in activating the cytotoxicity of metallo drugs.
For determining the cytotoxicity of complexes 1 b 5b, HeLa cells were seeded in a 96-well flat-bottomed microplate (about 10,000 cells well^−1) in growth medium (100 μL) and incubated at 37° C. under a 5% CO2 atmosphere for 24 h. The cells were then incubated in either blank medium or growth medium/DMSO (99:1, v/v) (100 μL) containing BCN-C10 (200 μM) in the dark at 37° C. under a 5% CO2 atmosphere for 1 h. The medium was then removed, the cell layer was washed with PBS, and further incubated in growth medium/DMSO (99:1, v/v) (100 μL) containing the ruthenium(II) complexes (40 μM) in the dark at 37° C. under a 5% CO2 atmosphere for 6, 12, or 24 h. Wells containing untreated cells were used as blank control. The microplate was incubated at 37° C. under a 5% CO2 atmosphere for another 4 h. The growth medium was then removed, and DMSO (200 μL) was added to each well. The microplate was further incubated for 15 min. The absorbance of the solutions at 570 nm was measured with a SPECTRAmax 340 microplate reader.

[2] = Emission enhancement upon reaction with BCN—OH; format: physicochemical; conditions: complex 10 μM, BCN—OH 1 mM, aerated MeOH, 298 K
Description: The strained alkyne BCN—OH has been selected as a model substrate. […] Namely, these findings confirm that complexes 1a-5b remained non-emissive or weakly emissive as long as the nitrone moiety is intact and resume their strongly emissive behavior upon cycloaddition reaction with strained alkynes.

[3] = Photophysical data (emission wavelength, lifetime, quantum yield); format: physicochemical
Method: Electronic absorption spectra were recorded on an Agilent 8453 diode array spectrophotometer. Steady-state emission spectra were recorded on a HORIBA JOBIN YVON Fluorolog TCSPC spectrofluorometer. Unless specified otherwise, all solutions for photophysical studies were degassed with no fewer than four successive freeze-pump-thaw cycles and stored in a 10-cm^3 round bottomed flask equipped with a side-arm 1-cm fluorescence cuvette and sealed from the atmosphere by a Rotaflo HP6/6 quick-release Teflon stopper. Luminescence quantum yields were measured by the optically dilute method (Demas, J. N. and Crosby, G. A., J. Phys. Chem. 1971, 75, 991) using an aerated aqueous solution of [Ru(bpy)3]Cl2 (ϕem=0.028, λex=455 nm) as the standard solution (Wallace, L. and Rillema, D. P., Inorg. Chem., 1993, 32, 3836). The concentrations of the standard and sample solutions were adjusted until the absorbance at 455 nm was 0.1. The emission lifetimes were measured on a HORIBA JOBIN YVON Fluorolog TCSPC spectrofluorometer in the Fast MCS lifetime mode with a NanoLED N-375 as the excitation source.
The very low emission quantum yield of complexes 1a-5b compared with other related iridium(III) and ruthenium(II) systems are expected to be due to quenching by the nitrone moiety.
In particular, the emission quantum yields of the iridium(III) complexes 1a, 2a and 3a (ϕem<0.021; Table 1) were much lower than those of common cyclometalated iridium(Ill) polypyridyl complexes (Li, S. P.-Y. et al., Chem. Eur. J. 2010, 16, 8329; Li, S. P.-Y. et al., Biomaterials 2013, 34, 7519; Lo, K. K.-W. et al., Chem. Commun. 2013, 49, 4271) which is expected to be a consequence of efficient quenching associated with isomerization of the C═N group.

BCN-BSA = biological target: T2, BCN-BSA (Bos taurus, UniProt P02769); assay: Emission enhancement upon reaction with BCN-BSA; format: biochemical, Bovine; conditions: complex 10 μM, protein 3.78 μM, aerated potassium phosphate buffer (50 mM, pH 7.4)/DMSO (99:1, v/v), 298 K
T2 construct: purchased Calbiochem
T2 sequence (P02769 25-607): as above

[4] = Potassium phosphate buffer (50 mM, pH 7.4)/MeOH (4:1, v/v), 298 K
[5] = Potassium phosphate buffer (50 mM, pH 7.4)/DMSO (9:1, v/v), 298 K

Row | Structure (SMILES) | k2 relative to those of the N-methyl nitrone complexes 1b, 2b, 3b and 4b ([1]; BCN—OH in MeOH at 298 K) | I/Io BSA (unmodified BSA) | Cell viability with BCN-C10 pretreatment (HeLa cells) | Percentage of survival (HeLa cells) [%] | Emission enhancement factors (I/Io) [2] | Φem ([3]; MeOH, 298 K) | λem ([3]; MeOH, 298 K) [nm] | τo ([3]; MeOH, 298 K) [μs] | Φem [3, 4] | λem [3, 4] [nm] | τo [3, 4] [μs] | I/Io BCN-BSA (BCN-BSA) | Second-order rate constants (k2) [1] [M⁻¹ s⁻¹] | Φem ([3]; CH2Cl2, 298 K) | τo ([3]; CH2Cl2, 298 K) [μs] | Φem [3, 5] | λem [3, 5] [nm] | τo [3, 5] [μs]
1 | Cc1ccnc(-c2cc(/C=[N+](\[O-])c3ccccc3)ccn2)c1.F[P-](F)(F)(F)(F)F.F[P-](F)(F)(F)(F)F.[Ru+2].c1ccc(-c2ccccn2)nc1.c1ccc(-c2ccccn2)nc1 [Complex 5b] | at least 36 fold | 1.1 | maintained good biocompatibility | 92.78 ± 8.54 | 3.9 | 0.015 | 608 | 0.63 | 0.006 | 610 | 0.69 | 9.6 | – | – | – | – | – | –
2 | CCCCNC(=O)c1ccnc(-c2cc(C(=O)NCCCC)ccn2)c1.CCCCNC(=O)c1ccnc(-c2cc(C(=O)NCCCC)ccn2)c1.Cc1ccnc(-c2cc(/C=[N+](/C)[O-])ccn2)c1.F[P-](F)(F)(F)(F)F.F[P-](F)(F)(F)(F)F.[Ru+2] [Complex 2b] | – | 1.1 | maintained good biocompatibility | 94.83 ± 16.20 | 7.1 | 0.006 | 647 | 0.98 | – | – | – | 16.9 | 0.086 ± 0.005 | 0.013 | 1.68 | 0.003 | 650 | 0.52
3 | Cc1ccnc(-c2cc(/C=[N+](/C)[O-])ccn2)c1.F[P-](F)(F)(F)(F)F.F[P-](F)(F)(F)(F)F.[Ru+2].c1ccc(-c2ccccn2)nc1.c1ccc(-c2ccccn2)nc1 [Complex 1b] | – | 1.1 | – | 91.37 ± 5.73 | 9.5 | 0.006 | 609 | 0.94 | – | – | – | 10.7 | 0.084 ± 0.005 | 0.006 | 1.20 | 0.004 | 611 | 0.64
